Reference: PubChem BioAssay (NCI)
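Interpolation was linear, between the two tested concentrations surrounding the appropriate level; five concentrations were tested over 48 hours in 96-well plates. GI50 = concentration required for 50% inhibition of growth. At the TGI there is no net growth.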 Where a SMILES comes first, the peptide text is derived from it.

Key:
Assay in all cases: NCI-60 cell line screen, 48 h
[1] = tested on: COLO 205 colon
[2] = tested on: HCT-116 colon
[3] = tested on: IGROV1 ovarian
[4] = tested on: LOX IMVI melanoma
[5] = tested on: SF-539 CNS
[6] = tested on: SK-MEL-28 melanoma
[7] = tested on: SN12C renal
[8] = tested on: TK-10 renal
[9] = tested on: UACC-62 melanoma
[10] = tested on: HCC-2998 colon

For `CCCCCCCCCCCCCC1=C(O)C(=O)C(CC2=C(O)C(=O)C(CCCCCCCCCCCCC)=C(O)C2=O)=C(O)C1=O`, the TGI [1] was over 100 µM, the TGI [2] was over 100 µM and the TGI [3] was over 100 µM. The TGI [4] was over 100 µM, the TGI [5] was over 100 µM and the TGI [6] was over 100 µM. The TGI [7] was over 100 µM, the TGI [8] was over 100 µM and the TGI [9] was over 100 µM.
In the case of `C=C1C(=O)O[C@@H]2/C=C(\C)CC/C=C(\C)CC[C@@]12O`, the TGI [1] is reported as 4.3 µM, the TGI [10] is reported as 12.7 µM and the TGI [2] is reported as 6.69 µM. For the same compound, the TGI [3] was 7.63 µM, the TGI [4] was 5.23 µM and the TGI [5] was 3.39 µM. The TGI [6] was 13.3 µM, the TGI [7] was 7.91 µM and the TGI [8] was 3.42 µM. For the same compound, the TGI [9] was 23.6 µM.
For `COc1ccccc1CC(C)N` (stereo not drawn), the TGI [1] was over 100 µM, the TGI [10] was over 100 µM and the TGI [2] was over 100 µM. It also gave a TGI [3] of over 100 µM, a TGI [4] of over 100 µM and a TGI [5] of over 100 µM. For the same compound, the TGI [6] was over 100 µM, the TGI [7] was over 100 µM and the TGI [8] was over 100 µM. The TGI [9] was over 100 µM.
With `CCN1c2cc(Br)cc3[nH]c(=O)n(c23)CCC1C` (stereo not drawn) the TGI [1] was 31.3 µM, the TGI [10] was 31.6 µM and the TGI [2] was 28.3 µM. The TGI [3] was 31.5 µM, the TGI [4] was 24.7 µM and the TGI [5] was over 100 µM. For the same compound, the TGI [6] was 65.8 µM, the TGI [7] was 30.6 µM and the TGI [8] was 49.2 µM. It also gave a TGI [9] of 24.6 µM.
For `Nc1[nH]c(=S)nc2nc3c(c(-c4ccccc4)c12)CCCC3`, the TGI [1] was over 100 µM, the TGI [2] was over 100 µM and the TGI [3] was over 100 µM. For the same compound, the TGI [4] was over 100 µM, the TGI [5] was over 100 µM and the TGI [7] was over 100 µM. It also gave a TGI [8] of over 100 µM and a TGI [9] of over 100 µM.
`O=C(CSCC(=O)N/N=C/c1ccccc1)N/N=C\c1ccccc1` showed a TGI [1] of over 100 µM, a TGI [2] of over 100 µM and a TGI [3] of over 100 µM. For the same compound, the TGI [4] was over 100 µM, the TGI [5] was over 100 µM and the TGI [6] was over 100 µM. For the same compound, the TGI [7] was over 100 µM, the TGI [8] was over 100 µM and the TGI [9] was over 100 µM.
Work on `CCCCCCCCCCCCCCCCCCNc1ccn(C2OC(CO)C(OP(=O)(O)OCC(O)COP(=O)(O)OCC3OC(n4cc(F)c(NCCCCCCCCCCCCCCCCCC)nc4=O)CC3O)C2O)c(=O)n1` (stereo not drawn) yielded a TGI [1] of over 50 µM, a TGI [10] of over 50 µM and a TGI [2] of over 50 µM. The TGI [3] was over 50 µM, the TGI [4] was over 50 µM and the TGI [5] was over 50 µM. It also gave a TGI [6] of over 50 µM, a TGI [7] of over 50 µM and a TGI [8] of over 50 µM. It also gave a TGI [9] of over 50 µM.
`O=C(Oc1c(Cl)cc(C2(c3cc(Cl)c(OC(=O)c4ccccc4)c(Cl)c3)CCCCC2)cc1Cl)c1ccccc1` was tested, and the TGI [1] was 19.6 µM, the TGI [10] was 22.9 µM and the TGI [2] was 25.9 µM. For the same compound, the TGI [3] was 23.4 µM, the TGI [4] was 29.1 µM and the TGI [5] was 29.2 µM. It also gave a TGI [6] of 29.3 µM, a TGI [7] of 28.2 µM and a TGI [8] of 30.4 µM. The TGI [9] was 22.5 µM.
Compound `OC[C@H]1NC[C@@H](O)[C@@H](O)[C@H]1O` has a TGI [1] of over 100 µM, a TGI [10] of over 100 µM and a TGI [2] of over 100 µM. It also gave a TGI [3] of over 100 µM, a TGI [4] of over 100 µM and a TGI [7] of over 100 µM. It also gave a TGI [8] of over 100 µM and a TGI [9] of over 100 µM.
With `CC(C)(C)OC(=O)N1C(OP(=O)(Oc2ccccc2)Oc2ccccc2)=CSc2ccccc21` the TGI [1] was 49.6 µM, the TGI [10] was over 100 µM and the TGI [2] was over 100 µM. It also gave a TGI [3] of over 100 µM, a TGI [4] of over 100 µM and a TGI [5] of over 100 µM. For the same compound, the TGI [6] was over 100 µM, the TGI [7] was over 100 µM and the TGI [8] was over 100 µM. For the same compound, the TGI [9] was over 100 µM.
`CC(C)CCCC(C)[C@H]1CC[C@H]2n3c(nc4ccccc43)CCC[C@]12C` (stereo partly drawn) showed a TGI [1] of 23.7 µM, a TGI [2] of 53.4 µM and a TGI [3] of 34.6 µM. The TGI [4] was over 100 µM, the TGI [5] was 35.2 µM and the TGI [6] was 34.3 µM. It also gave a TGI [7] of 31.1 µM, a TGI [8] of 38.2 µM and a TGI [9] of 30.8 µM.
Work on `CCc1n[nH]c(=O)n1/N=C(\C)c1ccc([N+](=O)[O-])cc1` yielded a TGI [1] of over 100 µM, a TGI [2] of over 100 µM and a TGI [3] of over 100 µM. For the same compound, the TGI [4] was over 100 µM, the TGI [6] was over 100 µM and the TGI [7] was over 100 µM. The TGI [8] was over 100 µM and the TGI [9] was over 100 µM.
With `O=C(NC(Cc1ccc(Br)cc1)C(=O)O)c1ccc(I)cc1` (stereo not drawn) the TGI [1] was over 100 µM, the TGI [10] was over 100 µM and the TGI [2] was over 100 µM. The TGI [3] was over 100 µM, the TGI [4] was over 100 µM and the TGI [5] was over 100 µM. It also gave a TGI [6] of over 100 µM, a TGI [7] of over 100 µM and a TGI [9] of over 100 µM.
`NC(=O)C1CCCN1C(=O)C(N)Cc1ccccc1` (stereo not drawn) (H-Phe-Pro-NH2; configuration not given here) gave a TGI [1] of over 100 µM, a TGI [10] of over 100 µM and a TGI [2] of over 100 µM. It also gave a TGI [3] of over 100 µM, a TGI [4] of over 100 µM and a TGI [6] of over 100 µM. The TGI [8] was over 100 µM and the TGI [9] was over 100 µM.
`Clc1cc(Cl)c2cc3cccc[n+]3cc2c1Cl` gave a TGI [1] of 28.1 µM, a TGI [10] of 36.6 µM and a TGI [2] of over 100 µM. It also gave a TGI [4] of 34.7 µM, a TGI [5] of 32.4 µM and a TGI [6] of 29.9 µM. It also gave a TGI [7] of 39.5 µM, a TGI [8] of 40.2 µM and a TGI [9] of 32.7 µM.
In the case of `Nc1ccc(O)c2c1C(=O)c1c(N)ccc(O)c1C2=O`, the TGI [1] is reported as over 100 µM, the TGI [10] is reported as over 100 µM and the TGI [2] is reported as over 100 µM. For the same compound, the TGI [3] was over 100 µM, the TGI [4] was over 100 µM and the TGI [5] was over 100 µM. For the same compound, the TGI [6] was over 100 µM, the TGI [7] was over 100 µM and the TGI [8] was over 100 µM. For the same compound, the TGI [9] was over 100 µM.
Compound `CN(C)CCNC(=O)c1cc(Cl)cc2cc3ccccc3nc12` has a TGI [1] of 1.66 µM, a TGI [10] of 3.15 µM and a TGI [2] of 7 µM. The TGI [3] was 8.32 µM, the TGI [4] was 2.6 µM and the TGI [5] was 3.84 µM. The TGI [6] was 3.76 µM, the TGI [7] was 6.9 µM and the TGI [9] was 1.98 µM.
